# Experimental data from patent US7056903B2, “Carboxylic acid derivatives as IP antagonists” (Syntex (U.S.A.) LLC, priority 2000, dated 2006).
row,SMILES,melting point
1,"O=C(NC(Cc1ccccc1)C(=O)O)OCCCc1ccc(-c2ccccc2)cc1 (stereo not drawn) [Compound 143, 2-(3-biphenyl-4-yl-propoxycarbonylamino)-3-phenyl-propionic acid]",139.1 to 139.9 °C
2,"Cn1cc(C[C@@H](NC(=O)OCc2ccc(-c3ccccc3)cc2)C(=O)O)c2ccccc21 [Compound 145, (R)-2-(biphenyl-4-ylmethoxycarbonylamino)-3-(1-methyl-1H-indol-3-yl)-propionic acid]",156.7 to 157.2 °C
3,"CCn1cc(CC(NC(=O)OCc2ccc(-c3ccccc3)cc2)C(=O)O)c2ccccc21 (stereo not drawn) [Compound 147, 2-(biphenyl-4-ylmethoxycarbonylamino)-3-(1-ethyl-1Hindol-3-yl)-propionic acid]",136.8 to 138.5 °C
4,"CC(C)n1cc(CC(NC(=O)OCc2ccc(-c3ccccc3)cc2)C(=O)O)c2ccccc21 (stereo not drawn) [Compound 148, 2-(biphenyl-4-ylmethoxycarbonylamino)-3-(1-isopropyl-1H-indol-3-yl)-propionic acid]",143.1 to 144.8 °C
5,"Cn1cc(C[C@@H](NC(=O)OCc2ccc(-c3ccccc3)cc2)C(=O)O)c2ccccc2c1=O [Compound 149, (R)-2-(biphenyl-4-ylmethoxycarbonylamino)-3-(2-methyl-1-oxo-1,2-dihydro-isoquinolin-4-yl)-propionic acid]",215 to 217 °C
6,"O=C(N[C@H](Cc1nc2ccccc2[nH]1)C(=O)O)OCc1ccc(-c2ccccc2)cc1 [Compound 150, (R)-3-(1H-benzoimidazol-2-yl)-2-(biphenyl-4-ylmethoxycarbonylamino)-propionic acid]",243 to 245 °C
7,"O=C(N[C@H](Cc1ccccc1)C(=O)O)OCc1ccc(COc2cccc3ncccc23)cc1 [Compound 152, (R)-3-phenyl-2-[4-(quinolin-5-yloxymethyl)-benzyloxycarbonylamino]-propionic acid]",189.4 to 189.8 °C
8,"O=C(N[C@H](Cc1ccccc1)C(=O)O)OCc1ccc(Cn2ccc3ccccc32)cc1 [Compound 153, (R)-2-(4-indol-1-ylmethyl-benzyloxycarbonylamino)-3-phenyl-propionic acid]",122 to 125 °C
9,"O=C(NC(Cc1ccccc1)C(=O)O)OCc1ccc(COc2ccc(Cl)cc2)cc1 (stereo not drawn) [Compound 155, 2-[4-(4-chloro-phenoxymethyl)-benzyloxycarbonylamino]-3-phenyl-propionic acid]",122 to 123.1 °C
10,"O=C(N[C@H](Cc1ccc(F)cc1)C(=O)O)OCc1ccc2oc(-c3ccc(F)cc3)nc2c1 [Compound 157, (R)-3-(4-fluoro-phenyl)-2-[2-(4-fluoro-phenyl)-benzoxazol-5-ylmethoxycarbonylamino]-propionic acid]",197.1 to 198.7 °C
11,"O=C(N[C@H](Cc1ccccc1)C(=O)O)OCc1ccc2oc(-c3ccc(F)cc3)nc2c1 [Compound 158, (R)-2-[2-(4-fluoro-phenyl)-benzoxazol-5-ylmethoxycarbonylamino]-3-phenyl-propionic acid]",208.2 to 208.5 °C
12,"N#Cc1cccc(-c2nc3cc(COC(=O)N[C@H](Cc4ccc(F)cc4)C(=O)O)ccc3o2)c1 [Compound 159, (R)-2-[2-(3-cyano-phenyl)-benzoxazol-5-ylmethoxycarbonylamino]-3-(4-fluoro-phenyl)-propionic acid]",208.5 to 209.2 °C
13,"O=C(N[C@H](Cc1ccc(F)cc1)C(=O)O)OCc1ccc2oc(-c3cc(F)cc(F)c3)nc2c1 [Compound 160, (R)-2-[2-(3,5-difluoro-phenyl)-benzoxazol-5-ylmethoxycarbonylamino]-3-(4-fluoro-phenyl)-propionic acid]",196.2 to 197.7 °C
14,"O=C(N[C@H](Cc1ccccc1)C(=O)O)OCc1ccc2oc(-c3cccc4[nH]ccc34)nc2c1 [Compound 161, (R)-2-[2-(1H-indol-4-yl)-benzoxazol-5-ylmethoxycarbonylamino]-3-phenyl-propionic acid]",187 to 189 °C
15,"O=C(N[C@H](Cc1ccccc1)C(=O)O)OCc1ccc2oc(-c3cc(F)cc(F)c3)nc2c1 [Compound 162, (R)-2-[2-(3,5-difluoro-phenyl)-benzoxazol-5-ylmethoxycarbonylamino]-3-phenyl-propionic acid]",193.8 to 195 °C
16,"O=C(NC(Cc1ccncc1)C(=O)O)OCc1cc2cc(-c3ccccc3)ccc2o1 (stereo not drawn) [Compound 163, 2-(5-phenyl-benzofuran-2-ylmethoxycarbonylamino)-3-pyridin-4-yl-propionic acid]",219 to 220 °C
17,"O=C(NC(Cc1cccnc1)C(=O)O)OCc1cc2cc(-c3ccccc3)ccc2o1 (stereo not drawn) [Compound 164, 2-(5-Phenyl-benzofuran-2-ylmethoxycarbonylamino)-3-pyridin-3-yl-propionic acid]",164 to 169 °C
18,"O=C(NC(Cc1cnccn1)C(=O)O)OCc1cc2cc(-c3ccccc3)ccc2o1 (stereo not drawn) [Compound 165, 2-(5-phenyl-benzofuran-2-ylmethoxycarbonylamino)-3-pyrazin-2-yl-propionic acid]",144.9 to 146 °C
19,"O=C(NC(Cc1cccnn1)C(=O)O)OCc1cc2cc(-c3ccccc3)ccc2o1 (stereo not drawn) [Compound 167, 2-(5-phenyl-benzofuran-2-ylmethoxycarbonylamino)-3-pyridazin-3-yl-propionic acid]",174.7 to 175 °C
20,"O=C(NC(Cc1ccccc1)C(=O)O)OCc1ccc(CCCc2ccccc2)cc1 (stereo not drawn) [Compound 168, 3-Phenyl-2-[4-(3-phenyl-propyl)-benzyloxycarbonylamino]-propionic acid]",134.8 to 135.2 °C
21,"Cn1cc(C[C@@H](NC(=O)OCc2ccc(COc3ccccc3)cc2)C(=O)O)c2ccccc21 [Compound 170, (R)-3-(1-methyl-1H-indol-3-yl)-2-(4-phenoxymethyl-benzyloxycarbonylamino)-propionic acid]",79.9 to 82.6 °C

# Results, then the molecule that gave them:
row,melting point,SMILES
1,105 to 108 °C,"O=C(NC(Cc1cccc(NS(=O)(=O)c2ccccc2)c1)C(=O)O)OCc1cc2cc(-c3ccccc3)ccc2o1 (stereo not drawn) [Compound 171, 3-(3-Benzenesulfonylamino-phenyl)-2-(5-phenyl-benzofuran-2-ylmethoxycarbonylamino)-propionic acid]"
2,177.6 to 178.6 °C,"O=C(NC(Cc1ccccc1)C(=O)O)OCc1coc2ccc(-c3ccccc3)cc12 (stereo not drawn) [Compound 172, 2-(5-Phenyl-benzofuran-3-ylmethoxycarbonylamino)-3-phenyl-propionic acid]"
3,181.4 to 184.5 °C,"O=C(NC(Cc1cncnc1)C(=O)O)OCc1cc2cc(-c3ccccc3)ccc2o1 (stereo not drawn) [Compound 173, 2-(5-phenyl-benzofuran-2-ylmethoxycarbonylamino)-3-pyrimidin-5-yl-propionic acid]"
4,119 to 121 °C,"O=C(NC(Cc1ccccc1)C(=O)O)OCc1cc2cc(-c3ccncc3)ccc2o1 (stereo not drawn) [Compound 174, 3-phenyl-2-(5-pyridin-4-yl-benzofuran-2-ylmethoxycarbonylamino)-propionic acid]"
5,192 to 192.5 °C,"O=C(NC(Cc1ccccc1)C(=O)O)OCc1cc2cc(-c3cncnc3)ccc2o1 (stereo not drawn) [Compound 175, 3-phenyl-2-(5-pyrimidin-5-yl-benzofuran-2-ylmethoxycarbonylamino)-propionic acid]"
6,255.2 to 255.7 °C,"O=C(NC(Cc1ccncc1)C(=O)O)OCc1cc2cc(-c3ccc(F)cc3)ccc2o1 (stereo not drawn) [Compound 176, 2-[5-(4-fluoro-phenyl)-benzofuran-2-ylmethoxycarbonylamino]-3-pyridin-4-yl-propionic acid]"
7,101.1 to 103.2 °C,"O=C(NC(Cc1ccc(F)cc1)C(=O)O)OCc1cc2cc(-c3cc(Cl)cc(Cl)c3)ccc2o1 (stereo not drawn) [Compound 177, 2-[5-(3,5-dichloro-phenyl)-benzofuran-2-ylmethoxycarbonylamino]-3-(4-fluoro-phenyl)-propionic acid]"
8,143 to 146 °C,"O=C(NC(CNc1ccccc1)C(=O)O)OCc1ccc(-c2ccccc2)cc1 (stereo not drawn) [Compound 179, 2-(biphenyl-4-ylmethoxycarbonylamino)-3-phenylamino-propionic acid]"
9,152.6 to 154.8 °C,"COc1ccc(NCC(NC(=O)OCc2ccc(-c3ccccc3)cc2)C(=O)O)cc1 (stereo not drawn) [Compound 180, 2-(biphenyl-4-ylmethoxycarbonylamino)-3-(4-methoxy-phenylamino)-propionic acid]"
10,196.9 to 198.1 °C,"O=C(NC(Cc1ccccc1)C(=O)O)OCc1ccc(NC(=O)c2ccccc2)cc1 (stereo not drawn) [Compound 181, 2-(4-benzoylamino-benzyloxycarbonylamino)-3-phenyl-propionic acid]"
11,172.1 to 173.4 °C,"O=C(NC(Cc1ccccc1)C(=O)O)OCc1ccc(C#Cc2ccccc2)cc1 (stereo not drawn) [Compound 182, 3-phenyl-2-(4-phenylethynyl-benzyloxycarbonylamino)-propionic acid]"
12,113.3 to 114.1 °C,"O=C(NC(Cc1ccccc1)C(=O)O)OCc1ccc(CSc2ccccc2)cc1 (stereo not drawn) [Compound 183, 3-phenyl-2-(4-phenylsulfanylmethyl-benzyloxycarbonylamino)-propionic acid]"
